Measured values from paper PMC12155096 (International Journal of Molecular Sciences, 2025).

The compounds below were run against T1, human CYP1A2 (Homo sapiens, UniProt P05177) (assay: not given). Conditions: human.
T1 sequence (P05177 1-516): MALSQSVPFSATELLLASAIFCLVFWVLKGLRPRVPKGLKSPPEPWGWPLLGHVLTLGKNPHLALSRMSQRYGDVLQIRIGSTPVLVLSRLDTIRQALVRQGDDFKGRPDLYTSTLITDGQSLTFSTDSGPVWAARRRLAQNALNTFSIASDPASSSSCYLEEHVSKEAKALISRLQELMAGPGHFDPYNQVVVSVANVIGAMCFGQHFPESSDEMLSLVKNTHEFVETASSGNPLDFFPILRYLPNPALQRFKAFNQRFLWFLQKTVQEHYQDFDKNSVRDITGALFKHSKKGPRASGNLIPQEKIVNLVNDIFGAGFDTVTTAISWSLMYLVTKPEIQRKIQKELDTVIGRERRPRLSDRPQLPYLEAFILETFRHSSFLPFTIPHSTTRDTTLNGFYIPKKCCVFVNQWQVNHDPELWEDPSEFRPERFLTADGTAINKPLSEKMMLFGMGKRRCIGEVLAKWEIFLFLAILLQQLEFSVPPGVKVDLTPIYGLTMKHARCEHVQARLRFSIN
For `CN(C)C(=O)Nc1ccc(Cl)c(Cl)c1` [Diuron], the “CYP1A2 Efficacy (in parenthesis)” value was 0.86 ± 0.12 (-103 ± 3) %.
For `Clc1ccc(COC(Cn2ccnc2)c2ccc(Cl)cc2Cl)cc1` (centres unmarked) [Econazole nitrate], the “CYP1A2 Efficacy (in parenthesis)” value was 1.18 ± 0.6 (-104 ± 2) %.
For `Clc1ccc(C(Cn2ccnc2)OCc2ccc(Sc3ccccc3)cc2)c(Cl)c1` (centres unmarked) [Fenticonazole nitrate], the “CYP1A2 Efficacy (in parenthesis)” value was 16.12 ± 1.09 (-89 ± 8) %.
With `CC(C)=CCOc1c2occc2cc2ccc(=O)oc12` [Imperatorin] the “CYP1A2 Efficacy (in parenthesis)” value was 0.42 ± 0.17 (-97 ± 12) %.

Each compound was assayed against T2, human CYP2C9 (Homo sapiens, UniProt P11712) (assay: not given). Conditions: human.
T2 sequence (P11712 whole entry): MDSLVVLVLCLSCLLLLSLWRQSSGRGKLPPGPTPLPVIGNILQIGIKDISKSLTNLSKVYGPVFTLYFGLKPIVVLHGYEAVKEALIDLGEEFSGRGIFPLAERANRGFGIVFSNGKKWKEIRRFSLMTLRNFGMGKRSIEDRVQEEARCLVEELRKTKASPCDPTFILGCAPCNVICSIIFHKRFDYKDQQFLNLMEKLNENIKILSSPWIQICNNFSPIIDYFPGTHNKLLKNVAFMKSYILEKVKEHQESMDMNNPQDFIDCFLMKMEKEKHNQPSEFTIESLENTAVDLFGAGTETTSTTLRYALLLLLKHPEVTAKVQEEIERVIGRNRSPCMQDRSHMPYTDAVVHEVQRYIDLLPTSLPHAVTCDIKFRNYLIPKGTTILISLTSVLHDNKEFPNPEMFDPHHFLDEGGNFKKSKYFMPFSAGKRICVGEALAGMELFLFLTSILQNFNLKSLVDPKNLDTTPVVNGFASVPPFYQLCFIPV
With `CN(C)C(=O)Nc1ccc(Cl)c(Cl)c1` [Diuron] the “CYP2C9 Efficacy (in parenthesis)” value was 69.41 ± 26.11 (-48 ± 19) %.
For `Clc1ccc(C(Cn2ccnc2)OCc2ccc(Sc3ccccc3)cc2)c(Cl)c1` (centres unmarked) [Fenticonazole nitrate], the “CYP2C9 Efficacy (in parenthesis)” value was 2.99 ± 0.41 (-103 ± 6) %.
In the case of `CC(C)=CCOc1c2occc2cc2ccc(=O)oc12` [Imperatorin], the “CYP2C9 Efficacy (in parenthesis)” value is reported as 0.62 ± 0.07 (-96 ± 6) %.

The compounds below were run against T3, human CYP2C19 (Homo sapiens, UniProt P33261) (assay: not given). Conditions: human.
T3 sequence (P33261 whole entry): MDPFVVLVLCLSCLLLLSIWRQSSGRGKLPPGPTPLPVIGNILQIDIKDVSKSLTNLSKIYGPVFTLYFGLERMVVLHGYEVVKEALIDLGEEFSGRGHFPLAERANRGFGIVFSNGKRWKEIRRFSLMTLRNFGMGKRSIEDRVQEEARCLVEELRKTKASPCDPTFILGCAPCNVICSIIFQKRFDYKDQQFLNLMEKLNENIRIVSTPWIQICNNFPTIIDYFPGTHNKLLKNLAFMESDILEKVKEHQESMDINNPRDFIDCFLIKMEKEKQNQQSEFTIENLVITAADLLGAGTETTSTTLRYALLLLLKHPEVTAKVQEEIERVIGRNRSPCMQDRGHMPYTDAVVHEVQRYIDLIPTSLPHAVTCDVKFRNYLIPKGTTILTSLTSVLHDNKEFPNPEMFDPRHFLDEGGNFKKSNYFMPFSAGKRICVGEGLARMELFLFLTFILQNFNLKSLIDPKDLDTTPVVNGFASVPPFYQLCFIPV
`CN(C)C(=O)Nc1ccc(Cl)c(Cl)c1` [Diuron] was tested, and the “CYP2C19 Efficacy (in parenthesis)” value was 39.45 ± 16.91 (-98 ± 5) %.
For `Clc1ccc(COC(Cn2ccnc2)c2ccc(Cl)cc2Cl)cc1` (centres unmarked) [Econazole nitrate], the “CYP2C19 Efficacy (in parenthesis)” value was 0.15 ± 0.02 (-152 ± 3) %.
`Clc1ccc(C(Cn2ccnc2)OCc2ccc(Sc3ccccc3)cc2)c(Cl)c1` (centres unmarked) [Fenticonazole nitrate] was tested, and the “CYP2C19 Efficacy (in parenthesis)” value was 2.65 ± 0.17 (-137 ± 20) %.
In the case of `CC(C)=CCOc1c2occc2cc2ccc(=O)oc12` [Imperatorin], the “CYP2C19 Efficacy (in parenthesis)” value is reported as 4.36 ± 0.0 (-126 ± 1) %.

Each compound was assayed against T4, human CYP2D6 (Homo sapiens, UniProt P10635) (assay: not given). Conditions: human.
T4 sequence (P10635 whole entry): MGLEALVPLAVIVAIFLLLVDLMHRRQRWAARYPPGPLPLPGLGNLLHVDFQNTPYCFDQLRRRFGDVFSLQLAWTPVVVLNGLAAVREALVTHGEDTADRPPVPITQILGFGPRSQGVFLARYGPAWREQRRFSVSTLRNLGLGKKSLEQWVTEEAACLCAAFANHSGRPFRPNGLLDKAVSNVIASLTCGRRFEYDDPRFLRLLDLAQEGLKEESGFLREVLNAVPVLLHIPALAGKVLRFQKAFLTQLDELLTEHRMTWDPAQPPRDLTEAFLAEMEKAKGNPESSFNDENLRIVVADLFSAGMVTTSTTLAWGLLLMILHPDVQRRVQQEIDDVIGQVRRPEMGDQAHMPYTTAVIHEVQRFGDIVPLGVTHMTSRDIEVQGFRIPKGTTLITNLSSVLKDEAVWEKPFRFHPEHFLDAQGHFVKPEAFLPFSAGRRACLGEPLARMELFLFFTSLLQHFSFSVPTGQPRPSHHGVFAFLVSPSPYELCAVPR
With `CN(C)C(=O)Nc1ccc(Cl)c(Cl)c1` [Diuron] the “CYP2D6 Efficacy (in parenthesis)” value was 42.09 ± 18.16 (-73 ± 17) %.
In the case of `Clc1ccc(COC(Cn2ccnc2)c2ccc(Cl)cc2Cl)cc1` (centres unmarked) [Econazole nitrate], the “CYP2D6 Efficacy (in parenthesis)” value is reported as 0.4 ± 0.23 (-105 ± 10) %.
In the case of `Clc1ccc(C(Cn2ccnc2)OCc2ccc(Sc3ccccc3)cc2)c(Cl)c1` (centres unmarked) [Fenticonazole nitrate], the “CYP2D6 Efficacy (in parenthesis)” value is reported as 0.37 ± 0.02 (-82 ± 4) %.
With `CC(C)=CCOc1c2occc2cc2ccc(=O)oc12` [Imperatorin] the “CYP2D6 Efficacy (in parenthesis)” value was 4.72 ± 0.31 (-110 ± 6) %.

Same assay, conditions: human, 1 h
`COC(=O)c1c(Cl)c(Cl)c(C(=O)OC)c(Cl)c1Cl` [Chlorthal-dimethyl] was tested, and the “CYP2D6 Efficacy (in parenthesis)” value was 44.96 ± 16.37 (-48 ± 8) %.
With `N#C/C(=C1/SCC(c2ccccc2Cl)S1)n1ccnc1` (centres unmarked) [Lanoconazole] the “CYP2D6 Efficacy (in parenthesis)” value was 2.58 ± 0.46 (-102 ± 1) %.
`Clc1cccc(C(c2ccc3[nH]cnc3c2)n2ccnc2)c1` (centres unmarked) [Liarozole] was tested, and the “CYP2D6 Efficacy (in parenthesis)” value was 31.04 ± 3.57 (-56 ± 13) %.
With `CCN(CC)Cc1nccn1-c1ccc([N+](=O)[O-])cc1C(=O)c1ccccc1Cl` [Nizofenone] the “CYP2D6 Efficacy (in parenthesis)” value was 2.98 ± 0.19 (-103 ± 6) %.

Each compound was assayed against T1, human CYP1A2 (assay: biochemical). Conditions: not given.
Compound `COC(=O)c1c(Cl)c(Cl)c(C(=O)OC)c(Cl)c1Cl` [Chlorthal-dimethyl] has an AC50 of 290 nM and an IC50 of 210 nM.
In the case of `Clc1ccc(C(Cn2ccnc2)OCc2ccc(Sc3ccccc3)cc2)c(Cl)c1` (centres unmarked) [Fenticonazole nitrate], the IC50 is reported as 16100 ± 1090 nM.
With `N#C/C(=C1/SCC(c2ccccc2Cl)S1)n1ccnc1` (centres unmarked) [Lanoconazole] the IC50 was 870 ± 100 nM.
`Clc1cccc(C(c2ccc3[nH]cnc3c2)n2ccnc2)c1` (centres unmarked) [Liarozole] gave an IC50 of 16800 ± 1090 nM.
Compound `CCN(CC)Cc1nccn1-c1ccc([N+](=O)[O-])cc1C(=O)c1ccccc1Cl` [Nizofenone] has an IC50 of 19800 nM.

Same assay, conditions: CYP1A2 IC50 (half-maximal inhibitory concentration)
With `CN(C)C(=O)Nc1ccc(Cl)c(Cl)c1` [Diuron] the IC50 was 860 nM.
`Clc1ccc(COC(Cn2ccnc2)c2ccc(Cl)cc2Cl)cc1` (centres unmarked) [Econazole nitrate] gave an IC50 of 1180 nM.
Compound `CC(C)=CCOc1c2occc2cc2ccc(=O)oc12` [Imperatorin] has an IC50 of 420 nM.

The compounds below were run against T2, human CYP2C9 (assay: biochemical). Conditions: not given.
For `COC(=O)c1c(Cl)c(Cl)c(C(=O)OC)c(Cl)c1Cl` [Chlorthal-dimethyl], the AC50 was 1460 nM and the IC50 was 1430 nM.
`Clc1ccc(C(Cn2ccnc2)OCc2ccc(Sc3ccccc3)cc2)c(Cl)c1` (centres unmarked) [Fenticonazole nitrate] was tested, and the IC50 was 2990 ± 410 nM.
In the case of `N#C/C(=C1/SCC(c2ccccc2Cl)S1)n1ccnc1` (centres unmarked) [Lanoconazole], the IC50 is reported as 2770 ± 320 nM.
`Clc1cccc(C(c2ccc3[nH]cnc3c2)n2ccnc2)c1` (centres unmarked) [Liarozole] showed an IC50 of 11200 ± 2550 nM.
`CCN(CC)Cc1nccn1-c1ccc([N+](=O)[O-])cc1C(=O)c1ccccc1Cl` [Nizofenone] showed an IC50 of 25100 nM.

Same assay, conditions: CYP2C9 IC50 (half-maximal inhibitory concentration)
In the case of `CN(C)C(=O)Nc1ccc(Cl)c(Cl)c1` [Diuron], the IC50 is reported as 69400 nM.
With `CC(C)=CCOc1c2occc2cc2ccc(=O)oc12` [Imperatorin] the IC50 was 620 nM.

The compounds below were run against T3, human CYP2C19 (assay: biochemical). Conditions: not given.
`COC(=O)c1c(Cl)c(Cl)c(C(=O)OC)c(Cl)c1Cl` [Chlorthal-dimethyl] was tested, and the AC50 was 21800 nM and the IC50 was 20700 nM.
`Clc1ccc(C(Cn2ccnc2)OCc2ccc(Sc3ccccc3)cc2)c(Cl)c1` (centres unmarked) [Fenticonazole nitrate] showed an IC50 of 2650 ± 170 nM.
Compound `N#C/C(=C1/SCC(c2ccccc2Cl)S1)n1ccnc1` (centres unmarked) [Lanoconazole] has an IC50 of 120 ± 50 nM.
`Clc1cccc(C(c2ccc3[nH]cnc3c2)n2ccnc2)c1` (centres unmarked) [Liarozole] showed an IC50 of 7610 ± 4780 nM.
With `CCN(CC)Cc1nccn1-c1ccc([N+](=O)[O-])cc1C(=O)c1ccccc1Cl` [Nizofenone] the IC50 was 18800 nM.

Same assay, conditions: CYP2C19 IC50 (half-maximal inhibitory concentration)
`CN(C)C(=O)Nc1ccc(Cl)c(Cl)c1` [Diuron] gave an IC50 of 39500 nM.
Work on `Clc1ccc(COC(Cn2ccnc2)c2ccc(Cl)cc2Cl)cc1` (centres unmarked) [Econazole nitrate] yielded an IC50 of 150 nM.
For `CC(C)=CCOc1c2occc2cc2ccc(=O)oc12` [Imperatorin], the IC50 was 4360 nM.

The compounds below were run against T4, human CYP2D6 (assay: biochemical). Conditions: not given.
In the case of `COC(=O)c1c(Cl)c(Cl)c(C(=O)OC)c(Cl)c1Cl` [Chlorthal-dimethyl], the IC50 is reported as 45000 nM.
With `Clc1ccc(C(Cn2ccnc2)OCc2ccc(Sc3ccccc3)cc2)c(Cl)c1` (centres unmarked) [Fenticonazole nitrate] the IC50 was 370 ± 20 nM.
Compound `N#C/C(=C1/SCC(c2ccccc2Cl)S1)n1ccnc1` (centres unmarked) [Lanoconazole] has an IC50 of 2580 ± 460 nM.
`Clc1cccc(C(c2ccc3[nH]cnc3c2)n2ccnc2)c1` (centres unmarked) [Liarozole] was tested, and the IC50 was 31000 ± 3570 nM.
`CCN(CC)Cc1nccn1-c1ccc([N+](=O)[O-])cc1C(=O)c1ccccc1Cl` [Nizofenone] gave an IC50 of 2980 nM.

Same assay, conditions: CYP2D6 IC50 (half-maximal inhibitory concentration)
`CN(C)C(=O)Nc1ccc(Cl)c(Cl)c1` [Diuron] gave an IC50 of 42100 nM.
Compound `Clc1ccc(COC(Cn2ccnc2)c2ccc(Cl)cc2Cl)cc1` (centres unmarked) [Econazole nitrate] has an IC50 of 400 nM.
`CC(C)=CCOc1c2occc2cc2ccc(=O)oc12` [Imperatorin] showed an IC50 of 4720 nM.
